Assay results reported in patent US11739122B2, “Glycopeptide antibiotic compounds, methods for producing the same, and uses thereof” (Academia Sinica, priority 2019, dated 2023).
≈ marks a conversion by molar mass, not a printed value.

Assays:
[1] = molecular target: T1, Orf2* (Actinoplanes teichomyceticus, UniProt A0A561VD00); test: Deacetylation catalytic specificity; type: biochemical; details: substrate of Orf2* (WT)
[2] = tested on: VRE ATCC 700425 (vanC); test: MIC, broth microdilution; type: cell-based, enterococci; details: Enterococcus
In short: (§1)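 Broth microdilution; inocula were prepared from 18–24 h agar colonies to a 0.5 McFarland standard and adjusted to about 1×10^8 CFU/mL. Plates were incubated at 37 °C for 18–24 h. The MIC was the lowest compound concentration showing no visible growth.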

[3] = tested on: VRE ATCC 700221 (vanA); test: MIC, broth microdilution; type: cell-based, enterococci; details: Enterococcus
In short: as §1

[4] = tested on: VRE ATCC 700802 (vanB); test: MIC, broth microdilution; type: cell-based, enterococci; details: Enterococcus
In short: as §1

[5] = tested on: MRSA ATCC 700787 VRSA; test: MIC, broth microdilution; type: cell-based, Staphylococcus aureus; details: Staphylococcus aureus
In short: as §1

[6] = tested on: S. aureus ATCC 29213; test: MIC, broth microdilution; type: cell-based, Staphylococcus aureus; details: Staphylococcus aureus, ATCC29213
In short: as §1

[7] = tested on: MRSA ATCC BAA-38; test: MIC, broth microdilution; type: cell-based, Staphylococcus aureus; details: Staphylococcus aureus
In short: as §1

[8] = tested on: MRSA ATCC 700698 hVISA; test: MIC, broth microdilution; type: cell-based, Staphylococcus aureus; details: Staphylococcus aureus
In short: as §1

[9] = tested on: MRSA ATCC 43300; test: MIC, broth microdilution; type: cell-based, Staphylococcus aureus; details: Staphylococcus aureus
In short: as §1

[10] = tested on: MRSA ATCC BAA-44; test: MIC, broth microdilution; type: cell-based, Staphylococcus aureus; details: Staphylococcus aureus
In short: as §1

[11] = tested on: MRSA ATCC 700789 VRSA; test: MIC, broth microdilution; type: cell-based, Staphylococcus aureus; details: Staphylococcus aureus
In short: as §1

[12] = tested on: MRSA ATCC BAA-39; test: MIC, broth microdilution; type: cell-based, Staphylococcus aureus; details: Staphylococcus aureus
In short: as §1

[13] = molecular target: T1, Orf2*; test: ITC binding affinity; details: ITC versus Orf2*
Experimental: (§2) Isothermal Titration Calormetry (ITC) Analysis
(§3) A stock solution (50 mM) was prepared by dissolving r6,GlcNAc pseudoaglycone (9) in 50% DMSO. The 1 mM protein solutions of Orf2*, Orf2*T and Dbv27 were prepared in a 50 mM HEPES buffer solution at pH 8.0. The solution (50 mM HEPES, pH8.0 and 10% DMSO) that contained compound 9 (1 mM) or S-adenosylmethionine (SAM) (1 mM) in a 40 μL injection syringe was titrated into the Orf2*, Orf2*T or Dbv27 (0.1 mM) protein solution, which was placed in the sample cell of a 200 μL volume. Each titration consisted of 16 injections of a 2 μL4 s^−1 duration in an interval of 150 seconds. Data analysis was performed by software.

[14] = molecular target: T2, Orf2*T (Actinoplanes teichomyceticus, UniProt A0A561VD00, F193Y/S98A/V121A); test: ITC binding affinity; details: ITC versus Orf2*T
T2 sequence (A0A561VD00 with tags, fused parts or gaps S98A/V121A/F193Y): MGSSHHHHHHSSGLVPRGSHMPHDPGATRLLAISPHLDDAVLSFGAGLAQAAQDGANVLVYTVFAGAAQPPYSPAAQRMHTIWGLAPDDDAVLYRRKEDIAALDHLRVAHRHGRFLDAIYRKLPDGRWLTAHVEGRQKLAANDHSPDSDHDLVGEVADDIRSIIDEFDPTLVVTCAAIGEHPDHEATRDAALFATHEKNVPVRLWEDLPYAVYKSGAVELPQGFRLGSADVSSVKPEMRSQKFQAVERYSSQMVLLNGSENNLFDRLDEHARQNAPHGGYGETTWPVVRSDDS
Experimental: as §2, §3

[15] = tested on: E. faecalis ATCC 29302; test: MIC, broth microdilution; type: cell-based; details: Enterococcus faecalis, ATCC29302
In short: as §1

T1 sequence (A0A561VD00 entry or part of it): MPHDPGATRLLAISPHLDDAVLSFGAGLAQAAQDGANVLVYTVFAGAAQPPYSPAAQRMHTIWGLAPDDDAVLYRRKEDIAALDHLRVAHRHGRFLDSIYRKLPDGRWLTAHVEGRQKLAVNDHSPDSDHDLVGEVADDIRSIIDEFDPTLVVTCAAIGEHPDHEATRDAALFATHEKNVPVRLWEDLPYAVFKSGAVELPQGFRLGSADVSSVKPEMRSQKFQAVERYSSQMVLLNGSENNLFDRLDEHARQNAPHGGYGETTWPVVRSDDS

kcatKm^−1 [1] [M⁻¹ s⁻¹] | SMILES | MIC [2] [µg/mL] | MIC [3] [µg/mL] | MIC [4] [µg/mL] | MIC [5] [µg/mL] | MIC [6] [µg/mL] | MIC [7] [µg/mL] | MIC [8] [µg/mL] | MIC [9] [µg/mL] | MIC [10] [µg/mL] | MIC [11] [µg/mL] | MIC [12] [µg/mL] | Kd [13] [µM] | Kd [14] [µM] | MIC [15] [µg/mL]
377300 | CC(=O)N[C@H]1[C@H](Oc2c3cc4cc2Oc2ccc(cc2Cl)[C@@H](O)[C@@H]2NC(=O)[C@H](NC(=O)[C@@H]4NC(=O)[C@H]4NC(=O)[C@@H](Cc5ccc(c(Cl)c5)O3)NC(=O)[C@H](N)c3ccc(O)c(c3)Oc3cc(O)cc4c3)c3ccc(O)c(c3)-c3c(O)cc(O)cc3[C@@H](C(=O)O)NC2=O)O[C@H](CO)[C@@H](O)[C@@H]1O [Compound 5, r4,GlcNAc Tei-pseudoaglycone] |  |  |  |  |  |  |  |  |  |  |  |  |  | 
 | CC(=O)N[C@H]1[C@H](O[C@@H]2c3ccc(c(Cl)c3)Oc3cc4cc(c3O)Oc3ccc(cc3Cl)C[C@H]3NC(=O)[C@H](N)c5ccc(O)c(c5)Oc5cc(O)cc(c5)[C@H](NC3=O)C(=O)N[C@H]4C(=O)N[C@H]3C(=O)N[C@@H]2C(=O)N[C@H](C(=O)O)c2cc(O)cc(O)c2-c2cc3ccc2O)O[C@H](CO)[C@@H](O)[C@@H]1O [Compound 9, r6,GlcNAc Tei-pseudoaglycone] | 4 (≈ 2.85 µM) | > 128 | 4 (≈ 2.85 µM) | 0.5 (≈ 0.357 µM) | 0.25 (≈ 0.178 µM) | 0.25 (≈ 0.178 µM) | 1 (≈ 0.713 µM) | 0.25 (≈ 0.178 µM) | 0.125 (≈ 0.0892 µM) | 2 (≈ 1.43 µM) | 0.125 (≈ 0.0892 µM) | 1420 ± 1100 | 125 ± 14 | 2 (≈ 1.43 µM)
